Series [1] deals with patients with HCC or other solid tumors positive for FGFR4 and KLB. The series is described as follows: Phase 1 dose escalation, DLTs, MTD/RP2D, FGF401 single agent. It is filed as in vivo. As for the experimental part:
Phase 1: Escalation with overdose control (EWOC) principle based on the observed dose-limiting toxicities (DLTs) was employed while escalating dosage starting with 50 mg until the lowest of MTD and/or RP2D was met. Sample size to have reasonable operating characteristics was estimated to be a minimum of 21 evaluable patients.
To further assess the effect of food uptake on FGF401, additional patients were recruited upon observance of clinical activity to receive doses under fed condition, in parallel with the fasted dose escalation. The starting dose was estimated at 80 mg qd. Principles of dose escalation aligned with those under fasted condition.
(§1) The primary endpoint for the phase 1 parts was the incidence of DLTs evaluated. The probability of DLTs during the evaluation period was estimated for patients in the dose determining set (DDS) for each treatment arm, FGF401 single agent and FGF401 + spartalizumab combination, to estimate respective MTDs. DDS for the phase 1 single agent or combination comprised safety set patients who either experienced a DLT or had confirmation by both the sponsor and investigators that no DLT occurred during the first cycle, C1 (first 2 cycles: C1, C2) based on at least 66% of planned doses administered in C1 (C1 and C2) with a minimum of 21 (42) days of observation following the first dose. For phase 2, the primary efficacy endpoint to investigate the antitumor activity of FGF401 included time to tumor progression assessed in groups 1 and 2, and overall response rate (ORR) in group 3 based on local assessment per Response Evaluation Criteria in Solid Tumors (RECIST) v1.1.
For the single-agent phase 1 primary outcome, an extended Bayesian hierarchical logistical regression model (BHLRM) was applied to estimate the relationship between dose and stratum (fasted vs fed) specific probability of a patient experiencing a DLT. […]

For series [2], the system named is HCC or other solid tumors expressing FGFR4 and KLB. The series is described as follows: Antitumor activity per RECIST v1.1, FGF401 single agent. Type of series: in vivo, human.
Source text: as §1
Antitumor activity was locally assessed as per RECIST v1.1 and immune-related response criteria (irRC) (only for combination arm) and evaluated using the following endpoints: best overall response, overall response rate (ORR), disease control rate (DCR), time to tumor progression, and overall survival (OS). Estimation of best overall response (BOR) was based on assessments collected no later than 30 days after the last study treatment administration date for RECIST v1.1 and 150 days for irRC.
The primary and secondary efficacy outcomes were analyzed in the full analysis set according to the assigned treatment stratified by study group, which we defined as a subgroup (fast/fed, group 1/2/3) of patients who were administered with similar dose levels on a given treatment arm and phase. The results have been presented as per RECIST v1.1. The number of patients having BOR was provided along with ORR and DCR with 95% exact binomial CIs (Clopper-Pearson). Waterfall plots for the phase 1 parts depicted the best percentage change from baseline in sum of longest diameters (SOD). […] The estimate at a given time point was the estimated probability that a patient would remain event free up to that time point. A positive trend regarding the activity of FGF401 in groups 1 and 2 was concluded if the observed lower limit of their respective 90% CI was no less than their expected median TTPs of 1.5 months and 2.2 months estimated in the absence of FGF401. KM plots were also used to estimate OS rate with one-sided 95% CI at 3 months, 5 months, 7 months, and 9 months for single agent phase 1 overall and phase 2: groups 1, 2; for single agent phase 2 – group 3, OS, and progression free survival (PFS) were calculated regardless of RP2D but for overall tumor type.
Exploratory biomarker analyses were conducted using full analysis set to assess efficacy and FGF19 signaling inhibition associated with FGF401. The best tumor percentage change from baseline as per RECIST v1.1 were investigated by FGF19 status (positive/negative) as determined through RT-qPCR and IHC assay. An evaluable RT-qPCR sample was considered FGF19+ if mean threshold cycle for FGF19 was ≤35, and FGF19- otherwise. Among the patients with evaluable IHC assay samples, those who had % cellular positivity > 0 were considered FGF19 + .

In series [3] the test system is phospho-FGFR4. The series is described as follows: Preclinical in vivo phospho-FGFR4 inhibition. Particulars: equivalent of 52.1 nM.
For series [4], the system named is phospho-FGFR4. Particulars: preclinical; read-out: in vivo phospho-FGFR4 IC90; cited from earlier work.
The subject of series [5] is cell-line derived HCC xenografts and patient-derived HCC xenografts. The conditions noted are these: dose-dependent manner; cited from earlier work.
Where [6] appears, read: single agent, phase I and phase II in total.

SMILES strings stand for the structures.

As a reminder, the IC90 is the concentration at which the effect reaches the 90% level. Turning to `COCCNc1cc(NC(=O)N2CCCc3cc(CN4CCN(C)CC4=O)c(C=O)nc32)ncc1C#N` [FGF401, roblitinib], the “DLT: increase in blood bilirubin” value in series [1] (human, in vivo, 21 days) was 2 n. In series [1] (human, in vivo, 21 days), the “DLT: increase in transaminases” value is reported as 4 n. The MTD result in series [1] (single agent, 50 to 150 mg) is listed as “not reached”. In series [2] (120 mg, phase 1, fed and fasted combined, N = 45), the “median TTP” value was found to be 2.63 months. For the same compound, in series [2] (120 mg, phase 1, fed and fasted combined, n/N = 38/45), the “median OS” value came out at 5.72 months. The “patients reporting PR at RP2D in phase 2” value in series [2] (all in patients with HCC) is listed as 4 patients. Besides, the “response by FGF19 IHC status” value in series [2] (patients with HCC, phase 1/2, 27 FGF19 positive, 33 negative) was “trend for better response among the FGF19 IHC-positive patients”. Moreover, the “responses in patients with other tumor types” value in series [2] (phase 1) is “no responses”. Besides, the “partial response (PR)” value in series [2] (phase 1, 59 evaluable patients with HCC, 80 mg fasted, 80 mg fed, 150 mg fasted, each) is reported as 3 patients. Also, in series [2] (phase 1, 59 evaluable patients with HCC, 120 mg, fasted), the “complete response (CR)” value is 1 patient. The “probability estimate of remaining event free (90% CI) at 9 months” value in series [2] (phase 2 group 1) is 30.4 [19.1, 100]; in series [2] (phase 2 group 2), 61.5 (49.8, 100); in series [2] (phase 2 group 3), 24.7 [12.6, 100]. Besides, the PR amounted to 2 patients in series [2] (phase 2 group 1 (n = 28), 120 mg qd); 2 patients in series [2] (phase 2 group 2 (n = 31), 120 mg qd); 7 patients in series [2] (setting [6]). Besides, the CR in series [2] (setting [6]) stood at 1 patients. For the same compound, the “patients with objective responses” value in series [2] (setting [6]) is 8 patients. Also, the “association of FGF19 transcript level (RT-qPCR) with response” value in series [2] (single-agent arm, prescreening biopsy) is “no clear association with response”. The “IC90 equivalent in human plasma” value with phospho-FGFR4 [3] is listed as ~ 23 ng/mL. Besides, the IC90 in the series on phospho-FGFR4 [4] was 52.1 nM. Besides, the “tumor response in xenografts” value in series [5] is on record as “robustly induces regression/stasis”.

Values taken from PMC9161616, “A first-in-human phase 1/2 study of FGF401 and combination of FGF401 with spartalizumab in patients with hepatocellular carcinoma or biomarker-selected solid tumors” (Journal of Experimental & Clinical Cancer Research : CR, 2022).
